{"source": "patent US9211244B2", "about": "“Method for anti-skin aging using caffeamide derivative” (CHINA MEDICAL UNIVERSITY, priority 2013, dated 2015)", "key": {"tyrosinase": {"target": "T1, tyrosinase (Mus musculus, UniProt P11344)", "T1 construct": "endogenous in cells; host or cells: B16 cells", "T1 sequence (P11344 19-533)": "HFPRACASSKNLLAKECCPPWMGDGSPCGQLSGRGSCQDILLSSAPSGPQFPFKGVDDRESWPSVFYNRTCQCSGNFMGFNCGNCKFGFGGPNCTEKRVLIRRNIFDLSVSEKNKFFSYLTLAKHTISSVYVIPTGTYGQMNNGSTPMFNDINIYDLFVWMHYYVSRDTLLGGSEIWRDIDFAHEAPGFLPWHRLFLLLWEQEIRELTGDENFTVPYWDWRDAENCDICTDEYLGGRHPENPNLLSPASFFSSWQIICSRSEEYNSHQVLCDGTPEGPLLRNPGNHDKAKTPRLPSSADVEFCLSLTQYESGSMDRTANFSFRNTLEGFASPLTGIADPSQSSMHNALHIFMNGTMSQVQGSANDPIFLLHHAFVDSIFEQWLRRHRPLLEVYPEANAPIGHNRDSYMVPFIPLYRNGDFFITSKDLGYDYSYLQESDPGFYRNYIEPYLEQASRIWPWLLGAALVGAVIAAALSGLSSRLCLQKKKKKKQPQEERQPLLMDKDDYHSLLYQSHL", "experiment": "Activity analysis of tyrosinase in B16 cells", "assay_type": "cell-based", "conditions": "5 μM to 125 μM, 48 hours", "experimental": "It has been known that tyrosinase is one of the primary protein participating in melanogenesis. In this experiment, different concentrations (5 μM to 125 μM) of the compounds of formula […] or (2) prepared in Example 1 were used to treat B16 cells (1.5×10^4) for 48 hours, and the activity of tyrosinase was analyzed by western blotting."}, "MMP-3": {"test_system": "MMP-3", "experiment": "MMP expression, western blot, UVB-irradiated Hs68 cells", "assay_type": "cell-based, human", "conditions": "25 μM; UVB 40 mJ/cm^2; 48 hours", "experimental": "(§1) Human fibroblast Hs68 cells (5×10^5) (the number of Bioresource Collection and Research Center (BCRC): 60038) were counted and incubated in a culture dish with a diameter of 10 cm (the culture dish components were adjusted by L-glutamine (4 mM) to have 1.5 g/L NaHCO3, 4.5 g/L glucose, and 90% Dulbecco's Modified Eagle's Medium with 10% fetal bovine serum (FBS)). The medium was removed until human fibroblast Hs68 cells grow to a confluence of 80%, and the cells were then washed once with 5 ml PBS (phosphate buffered saline). Then, 3 ml phenol red-free medium which contain different concentrations (0 μM to 25 μM) of the compounds of formula (1) or formula (2) prepared in Example 1 were added into the culture dish. After incubating for 1 hour, the cells were irradiated by UV light (UVB with an intensity of 40 mJ/cm^2) for 15 seconds. Next, the phenol red-free medium which contains different concentrations (0 μM to 25 μM) of the compounds of formula (1) or formula (2) prepared in Example 1 were added into the culture dish sequentially. After incubation in an incubator (37° C., 5% CO2) for 48 hours, the cells were collected.\n(§2) The collected cells were treated with a sonication buffer (containing Na3VO4 (100 μM), phenylmethanesulfonyl fluoride (PMSFL, 100 mg/ml), leupeptin (20 mg/ml), Tris-HCl (pH 7.4, 50 μM), NaCl (37.5 μM), DL-dithiothretiol (250 μM), sodium deoxycholate (3 μM), EDTA (1 μM), SDS (0.1%), and Igepal™ CA-630 (Sigma-Aldrich, 1%)) and sonicated to rupture the cell membranes. Then, the organelles and fragments of the cells were precipitated by centrifugation, and the supernatant, which contains proteins in the cytosol was collected. Next, the obtained proteins were separated by SDS-PAGE, and transferred to a membrane by western blotting. Antibodies were used to recognize the targeted proteins, such as MMP-1, MMP-3, MMP-9, and actin. The images were recorded by a Luminescent imagination technology (LAS-4000, FUJIFILM), and the variation of the proteins expression levels were determined by a quantitative analysis software (multi Gauge 2.2, Steware Technology Inc.)."}, "MMP-1": {"test_system": "MMP-1", "experiment": "MMP expression, western blot, UVB-irradiated Hs68 cells", "assay_type": "cell-based, human", "conditions": "5 μM; UVB 40 mJ/cm^2; 48 hours", "experimental": "as §1, §2"}, "[1]": {"test_system": "human fibroblast Hs68 cells", "experiment": "Cellular toxicity evaluation, MTT assay", "assay_type": "cell-based", "conditions": "24 hours", "experimental": "MTT (3-(4,5-dimethylthiazol-2-yl)-2,5-diphenyl tetrazolium bromide) assay was used to determine the cellular toxicity of the caffeamide derivatives described herein. First, different concentrations (0 μM to 100 μM) of the compounds of formula (1) or formula (2) prepared in Example 1 of the present invention were added, respectively, into a 96-well microplate which containing human fibroblast Hs68 cells (1×10^4 cells per well). After the cells were incubated in an incubator at 37° C. and 5% CO2 for 24 hours, 15 μl of MTT solution (0.5 mg/ml; dissolved in PBS) was added into the microplate and the human fibroblast Hs68 cells were incubated for 3 hours. Next, 75 μl SDS (sodium dodecyl sulfate) solution (10% SDS was dissolved in 0.01N HCl) was added into the microplate. After the cells were maintained for 24 hours, the absorbances of each well were measured at a wavelength of 570 nm by an enzyme immunoassay analyzer. Finally, the cell survival rate was calculated by the following formula to observe the cellular toxicity of compounds. The results are shown in Table 5, FIG. 10a and FIG. 10b. Cell survival rate(%)=absorbance of the experimental group/absorbance of the control group."}}, "data": [{"smiles": "O=C(C=Cc1ccc(O)c(O)c1)NCCc1ccc(Br)cc1", "note": "[Compound of formula (2)]", "values": [{"measurement": "activity of the tyrosinase in the cells", "setting": "tyrosinase", "value": "inhibited"}, {"measurement": "expression level of MMP-3 as compared to that of the untreated cells", "setting": "MMP-3", "value": 1.0, "unit": "times"}, {"measurement": "expression level of MMP-1 as compared to that of the untreated cells", "setting": "MMP-1", "value": 1.1, "unit": "times"}, {"measurement": "Cell survival rate (%)", "setting": "[1]; 5 μM", "value": "92.0 ± 1.0", "unit": "%"}, {"measurement": "Cell survival rate (%)", "setting": "[1]; 10 μM", "value": "90.4 ± 2.3", "unit": "%"}, {"measurement": "Cell survival rate (%)", "setting": "[1]; 25 μM", "value": "89.7 ± 2.8", "unit": "%"}, {"measurement": "Cell survival rate (%)", "setting": "[1]; 50 μM", "value": "86.1 ± 1.4", "unit": "%"}]}]}
